# Experimental data reported in patent publication US11339130B1 (Blade Therapeutics, Inc., priority 2016, dated 2022).
# Experiments:
# Human Calpain 2/NS1 = molecular target: T1, Human Calpain 2/NS1 (Homo sapiens, UniProt P17655); assay: Calpain inhibition continuous fluorescence (FRET) assay, Human Calpain 2/NS1; assay type: biochemical; conditions: read-out: Human Calpain 2/NS1 IC50
# T1 sequence (P17655 1-700): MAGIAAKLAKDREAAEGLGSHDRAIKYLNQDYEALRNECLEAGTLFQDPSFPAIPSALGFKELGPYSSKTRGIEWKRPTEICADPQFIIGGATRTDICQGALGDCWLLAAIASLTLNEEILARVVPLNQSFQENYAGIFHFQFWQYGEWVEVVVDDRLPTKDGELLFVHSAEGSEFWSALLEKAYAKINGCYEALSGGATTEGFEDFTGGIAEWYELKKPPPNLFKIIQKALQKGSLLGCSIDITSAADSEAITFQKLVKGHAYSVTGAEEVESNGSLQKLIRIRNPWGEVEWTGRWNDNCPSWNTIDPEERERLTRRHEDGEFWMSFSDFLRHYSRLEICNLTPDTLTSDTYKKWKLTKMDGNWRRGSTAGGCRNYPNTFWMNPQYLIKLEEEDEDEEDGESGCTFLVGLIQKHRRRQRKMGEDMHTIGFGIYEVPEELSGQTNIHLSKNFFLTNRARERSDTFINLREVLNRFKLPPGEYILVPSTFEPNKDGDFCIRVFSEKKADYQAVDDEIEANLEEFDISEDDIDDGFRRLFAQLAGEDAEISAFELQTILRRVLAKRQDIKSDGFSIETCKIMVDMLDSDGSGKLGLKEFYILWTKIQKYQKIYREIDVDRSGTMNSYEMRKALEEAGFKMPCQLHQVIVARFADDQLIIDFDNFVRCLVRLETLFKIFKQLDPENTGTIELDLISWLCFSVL
# T1 sequence (P04632 1-268 partner): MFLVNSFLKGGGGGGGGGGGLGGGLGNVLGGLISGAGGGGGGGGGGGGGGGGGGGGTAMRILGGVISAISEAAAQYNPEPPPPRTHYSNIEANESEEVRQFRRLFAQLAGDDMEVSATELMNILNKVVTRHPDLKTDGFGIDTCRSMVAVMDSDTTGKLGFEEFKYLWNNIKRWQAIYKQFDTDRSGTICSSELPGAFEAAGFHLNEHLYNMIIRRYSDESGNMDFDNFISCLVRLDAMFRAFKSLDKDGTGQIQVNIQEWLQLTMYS
# Method in brief: (§1)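 Continuous FRET read (ex 490/em 520 nm, 10 min) of calpain 1, 2 or 9 cleaving an internally quenched 5-FAM peptide, triggered by substrate with CaCl2 after enzyme–inhibitor incubation at ambient 25 °C, pH 7.5 Tris/NaCl/DTT buffer. IC50 from initial rates (1-5 min) via 4-parameter fit.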
# Human Calpain 1/NS1 = molecular target: T2, Human Calpain 1/NS1 (Homo sapiens, UniProt P07384); assay: Calpain inhibition continuous fluorescence (FRET) assay, Human Calpain 1/NS1; assay type: biochemical; conditions: read-out: Human Calpain 1/NS1 IC50
# T2 sequence (P07384 1-714): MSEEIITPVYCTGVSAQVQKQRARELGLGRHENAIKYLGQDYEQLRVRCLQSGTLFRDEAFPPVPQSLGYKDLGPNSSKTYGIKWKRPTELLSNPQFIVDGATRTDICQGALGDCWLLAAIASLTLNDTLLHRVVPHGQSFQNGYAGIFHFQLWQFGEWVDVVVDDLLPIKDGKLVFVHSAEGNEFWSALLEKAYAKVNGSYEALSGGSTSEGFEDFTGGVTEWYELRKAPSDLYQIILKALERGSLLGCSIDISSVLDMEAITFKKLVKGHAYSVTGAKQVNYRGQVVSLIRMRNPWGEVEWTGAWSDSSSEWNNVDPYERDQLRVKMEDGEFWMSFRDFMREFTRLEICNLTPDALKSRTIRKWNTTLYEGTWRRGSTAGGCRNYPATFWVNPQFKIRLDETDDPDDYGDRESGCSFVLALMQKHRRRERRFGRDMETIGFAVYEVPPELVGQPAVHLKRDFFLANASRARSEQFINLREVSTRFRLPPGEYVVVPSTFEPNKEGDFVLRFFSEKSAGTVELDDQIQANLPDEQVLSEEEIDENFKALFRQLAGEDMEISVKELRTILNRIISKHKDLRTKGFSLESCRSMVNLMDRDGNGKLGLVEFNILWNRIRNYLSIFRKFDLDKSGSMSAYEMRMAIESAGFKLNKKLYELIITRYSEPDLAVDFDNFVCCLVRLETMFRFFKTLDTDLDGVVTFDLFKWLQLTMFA
# T2 sequence (P04632 1-268 partner): T1 sequence (P04632 1-268 partner)
# Method in brief: as §1
# [1] = system: Calpain activity in SH-SY5Y cells; assay: SH-SY5Y + AMC fluorescence assay (Suc-LLVY-AMC substrate); assay type: cell-based; conditions: read-out: SH-SY5Y + AMC IC50
# Human Calpain 9/NS1 = molecular target: T3, Human Calpain 9/NS1 (Homo sapiens, UniProt O14815); assay: Calpain inhibition continuous fluorescence (FRET) assay, Human Calpain 9/NS1; assay type: biochemical; conditions: read-out: Human Calpain 9/NS1 IC50
# T3 sequence (O14815 1-690): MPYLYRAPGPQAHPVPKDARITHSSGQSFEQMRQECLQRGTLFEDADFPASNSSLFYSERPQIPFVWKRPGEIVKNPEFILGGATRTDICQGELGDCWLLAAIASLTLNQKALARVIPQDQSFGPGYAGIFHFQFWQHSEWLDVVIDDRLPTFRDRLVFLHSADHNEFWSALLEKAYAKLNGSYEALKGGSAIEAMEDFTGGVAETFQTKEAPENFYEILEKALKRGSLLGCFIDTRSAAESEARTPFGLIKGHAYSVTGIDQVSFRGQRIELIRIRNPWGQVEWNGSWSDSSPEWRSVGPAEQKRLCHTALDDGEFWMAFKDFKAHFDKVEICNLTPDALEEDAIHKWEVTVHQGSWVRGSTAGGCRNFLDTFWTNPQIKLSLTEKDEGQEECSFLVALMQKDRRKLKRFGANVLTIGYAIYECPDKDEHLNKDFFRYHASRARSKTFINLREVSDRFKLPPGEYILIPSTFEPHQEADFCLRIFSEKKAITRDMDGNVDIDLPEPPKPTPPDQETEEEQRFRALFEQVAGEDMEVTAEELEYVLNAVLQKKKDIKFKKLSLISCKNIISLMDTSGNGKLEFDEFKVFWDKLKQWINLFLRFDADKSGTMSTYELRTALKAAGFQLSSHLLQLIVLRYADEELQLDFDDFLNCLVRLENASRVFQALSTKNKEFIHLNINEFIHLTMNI
# T3 sequence (P04632 1-268 partner): T1 sequence (P04632 1-268 partner)
# Method in brief: as §1
# [2] = system: Calpain activity in SH-SY5Y cells (SBDP-150); assay: SH-SY5Y Spectrin western blot assay (SBDP-150 breakdown product, A23187-induced); assay type: cell-based; conditions: Homo sapiens; SH-SY5Y cells, A23187-induced SBDP-150, western blot; read-out: SH-SY5Y Spectrin IC50
IC50 (Human Calpain 2/NS1),IC50 (Human Calpain 1/NS1),IC50 [1],IC50 (Human Calpain 9/NS1),IC50 [2],Structure (SMILES)
< 3 µM,< 3 µM,< 10 µM,< 3 µM,< 10 µM,"NC(=O)C(=O)C(Cc1ccccc1)NC(=O)c1nsnc1-c1ccncc1 (stereo not drawn) [Compound 371, N-(4-amino-3,4-dioxo-1-phenylbutan-2-yl)-4-(pyridin-4-yl)-1,2,5-thiadiazole-3-carboxamide]"
< 3 µM,< 3 µM,< 10 µM,< 3 µM,< 10 µM,"NC(=O)C(=O)C(Cc1ccccc1)NC(=O)c1nsnc1-c1cccc(F)c1F (stereo not drawn) [Compound 372, N-(4-amino-3,4-dioxo-1-phenylbutan-2-yl)-4-(2,3-difluorophenyl)-1,2,5-thiadiazole-3-carboxamide]"
< 3 µM,< 3 µM,< 10 µM,< 3 µM,< 10 µM,"NC(=O)C(=O)C(Cc1ccccc1)NC(=O)c1nsnc1-c1ccccn1 (stereo not drawn) [Compound 373, N-(4-amino-3,4-dioxo-1-phenylbutan-2-yl)-4-(pyridin-2-yl)-1,2,5-thiadiazole-3-carboxamide]"
< 3 µM,< 3 µM,< 10 µM,< 3 µM,< 10 µM,"NC(=O)C(=O)C(Cc1ccccc1)NC(=O)c1nsnc1-c1ccncn1 (stereo not drawn) [Compound 374, N-(4-amino-3,4-dioxo-1-phenylbutan-2-yl)-4-(pyrimidin-4-yl)-1,2,5-thiadiazole-3-carboxamide]"
< 3 µM,< 3 µM,< 10 µM,< 3 µM,< 10 µM,"Cc1c(F)cccc1-c1nsnc1C(=O)NC(Cc1ccccc1)C(=O)C(N)=O (stereo not drawn) [Compound 375, N-(4-amino-3,4-dioxo-1-phenylbutan-2-yl)-4-(3-fluoro-2-methylphenyl)-1,2,5-thiadiazole-3-carboxamide]"
< 3 µM,< 3 µM,< 10 µM,< 3 µM,< 10 µM,"NC(=O)C(=O)[C@H](Cc1ccccc1)NC(=O)c1nsnc1-c1ccccc1 [Compound 376, (S)—N-(4-amino-3,4-dioxo-1-phenylbutan-2-yl)-4-phenyl-1,2,5-thiadiazole-3-carboxamide]"
< 3 µM,< 3 µM,10 to 25 µM,< 3 µM,< 10 µM,"NC(=O)C(=O)C(Cc1ccccc1)NC(=O)c1nsnc1-c1cccnc1 (stereo not drawn) [Compound 377, N-(4-amino-3,4-dioxo-1-phenylbutan-2-yl)-4-(pyridin-3-yl)-1,2,5-thiadiazole-3-carboxamide]"
< 3 µM,< 3 µM,> 25 µM,< 3 µM,< 10 µM,"NC(=O)C(=O)C(Cc1ccccc1)NC(=O)c1nsnc1-c1ccc2c(c1)C(=O)N(Cc1ccccc1)C2 (stereo not drawn) [Compound 378, N-(4-amino-3,4-dioxo-1-phenylbutan-2-yl)-4-(2-benzyl-3-oxoisoindolin-5-yl)-1,2,5-thiadiazole-3-carboxamide]"
< 3 µM,< 3 µM,< 10 µM,< 3 µM,< 10 µM,"NC(=O)C(=O)[C@@H](Cc1ccccc1)NC(=O)c1cn(C(F)F)nc1-c1ccccc1 [Compound 380, (R)—N-(4-amino-3,4-dioxo-1-phenylbutan-2-yl)-1-(difluoromethyl)-3-phenyl-1H-pyrazole-4-carboxamide]"
< 3 µM,< 3 µM,< 10 µM,< 3 µM,< 10 µM,"NC(=O)C(=O)C(Cc1ccccc1)NC(=O)c1cn(C(F)F)nc1-c1cccc(F)c1 (stereo not drawn) [Compound 381, N-(4-amino-3,4-dioxo-1-phenylbutan-2-yl)-1-(difluoromethyl)-3-(3-fluorophenyl)-1H-pyrazole-4-carboxamide]"
< 3 µM,< 3 µM,< 10 µM,< 3 µM,10 to 25 µM,"Cc1ccccc1-c1nn(C(F)F)cc1C(=O)NC(Cc1ccccc1)C(=O)C(N)=O (stereo not drawn) [Compound 382, N-(4-amino-3,4-dioxo-1-phenylbutan-2-yl)-1-(difluoromethyl)-3-(o-tolyl)-1H-pyrazole-4-carboxamide]"
< 3 µM,< 3 µM,< 10 µM,< 3 µM,< 10 µM,"NC(=O)C(=O)C(Cc1ccccc1)NC(=O)c1cn(C(F)F)nc1-c1ccccc1F (stereo not drawn) [Compound 383, N-(4-amino-3,4-dioxo-1-phenylbutan-2-yl)-1-(difluoromethyl)-3-(2-fluorophenyl)-1H-pyrazole-4-carboxamide]"
< 3 µM,< 3 µM,< 10 µM,< 3 µM,< 10 µM,"COc1cccc(-c2nn(C(F)F)cc2C(=O)NC(Cc2ccccc2)C(=O)C(N)=O)c1 (stereo not drawn) [Compound 384, N-(4-amino-3,4-dioxo-1-phenylbutan-2-yl)-1-(difluoromethyl)-3-(3-methoxyphenyl)-1H-pyrazole-4-carboxamide]"
< 3 µM,< 3 µM,> 25 µM,< 3 µM,< 10 µM,"COc1ccc(C[C@H](NC(=O)c2oc(C)nc2-c2ccccc2)C(=O)C(N)=O)cc1 [Compound 385, (S)—N-(4-amino-1-(4-methoxyphenyl)-3,4-dioxobutan-2-yl)-2-methyl-4-phenyloxazole-5-carboxamide]"
< 3 µM,< 3 µM,10 to 25 µM,< 3 µM,> 25 µM,"Cc1nc(-c2ccccc2)c(C(=O)N[C@@H](CCc2ccccc2)C(=O)C(N)=O)o1 [Compound 386, (S)—N-(1-amino-1,2-dioxo-5-phenylpentan-3-yl)-2-methyl-4-phenyloxazole-5-carboxamide]"
